Experimental data taken from ChEMBL document CHEMBL1201862, “PubChem BioAssay data set” (2004).
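How tested: cells in 96-well plates exposed to compound for 48 hours at five concentrations. GI50: concentration for 50% inhibition of growth.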 Activity calls are given as the source filed them. Rule as the data show it: active = GI50 up to about 1.1 µM and inactive = higher.

Legend:
Assay in all cases: NCI tumour cell line growth inhibition, 48 h
KM12 = system: KM12
SF-295 = system: SF-295
M19-MEL = system: M19-MEL
HCC 2998 = system: HCC 2998
NCI-H23 = system: NCI-H23
XF498 = system: XF498
OVCAR-3 = system: OVCAR-3
SNB-75 = system: SNB-75
HL-60 = system: HL-60
RPMI-8226 = system: RPMI-8226
DLD-1 = system: DLD-1
UACC-62 = system: UACC-62
KM-20L2 = system: KM-20L2
NCI/ADR-RES = system: NCI/ADR-RES
T47D = system: T47D
MCF7 = system: MCF7
Hs-578T = system: Hs-578T
MDA-MB-231 = system: MDA-MB-231
BT-549 = system: BT-549

Measured: GI50

O=c1c(O)c(-c2ccc(O)c(O)c2)oc2cc(O)ccc12 [FISETIN]
inactive: KM12 5.62 µM | SF-295 18.5 µM | M19-MEL 26 µM | HCC 2998 18.1 µM | NCI-H23 11.6 µM | XF498 20.9 µM | OVCAR-3 19.9 µM | SNB-75 5.27 µM | HL-60 28.7 µM | RPMI-8226 26.8 µM | DLD-1 20.2 µM | UACC-62 10.7 µM | KM-20L2 27.2 µM

CCCCOC(=O)/C(CC(=O)C=C(C)C)=N\NS(=O)(=O)c1ccc(C)cc1
inactive: KM12 > 100 µM | SF-295 > 100 µM | M19-MEL > 100 µM | HCC 2998 > 100 µM | NCI-H23 > 100 µM | XF498 > 100 µM | OVCAR-3 > 100 µM | SNB-75 > 100 µM | HL-60 > 100 µM | RPMI-8226 > 100 µM | DLD-1 65.5 µM | UACC-62 > 100 µM | KM-20L2 > 100 µM

O=C1C(Cl)=C(Cl)C(=O)N1c1cccc(C(F)(F)F)c1
inactive: KM12 > 100 µM | SF-295 > 100 µM | M19-MEL > 100 µM | HCC 2998 > 100 µM | NCI-H23 > 100 µM | XF498 3.77 µM | OVCAR-3 > 100 µM | SNB-75 > 100 µM | HL-60 > 100 µM | RPMI-8226 > 65.6 µM | DLD-1 > 93.3 µM | UACC-62 > 100 µM | KM-20L2 > 100 µM

CC(C)N(C(=O)C12C3C4C1C1C2C3C41C(=O)N(C(C)C)C(C)C)C(C)C (centres undefined)
inactive: KM12 > 50 µM | SF-295 > 50 µM | M19-MEL > 50 µM | HCC 2998 > 50 µM | NCI-H23 > 50 µM | XF498 > 50 µM | OVCAR-3 > 50 µM | SNB-75 > 50 µM | HL-60 > 50 µM | RPMI-8226 > 50 µM | DLD-1 > 50 µM | UACC-62 > 50 µM | KM-20L2 > 50 µM

CN(C)CCCCN1CCc2c(n(C)c3ccccc23)C1=O
inactive: NCI/ADR-RES 39.4 µM | KM12 68.7 µM | T47D 23.4 µM | SF-295 48.4 µM | MCF7 37.3 µM | M19-MEL 38 µM | NCI-H23 82 µM | XF498 20.7 µM | OVCAR-3 > 78.9 µM | SNB-75 34.1 µM | DLD-1 60.4 µM | Hs-578T 41.8 µM | MDA-MB-231 24.6 µM | UACC-62 26 µM | KM-20L2 33 µM | BT-549 > 37.8 µM

[N-]=[N+]=C1C(=O)C2CC3CC(C2)CC1C3
inactive: KM12 > 100 µM | SF-295 > 100 µM | M19-MEL > 100 µM | HCC 2998 > 100 µM | NCI-H23 > 100 µM | XF498 > 100 µM | OVCAR-3 > 100 µM | SNB-75 > 100 µM | HL-60 > 100 µM | RPMI-8226 > 100 µM | DLD-1 > 100 µM | UACC-62 > 100 µM | KM-20L2 > 100 µM

Cc1cccc(N(CC(=O)O)S(=O)(=O)c2ccccc2)c1
inactive: KM12 > 100 µM | SF-295 > 100 µM | M19-MEL > 100 µM | HCC 2998 > 100 µM | NCI-H23 > 100 µM | XF498 > 100 µM | OVCAR-3 > 100 µM | SNB-75 > 100 µM | HL-60 > 100 µM | RPMI-8226 > 100 µM | DLD-1 > 100 µM | UACC-62 > 100 µM | KM-20L2 > 100 µM
